Results reported in US10456451B2, “Protease-resistant mutants of stromal cell derived factor-1 in the repair of tissue damage” (Mesoblast International Sàrl, priority 2010, dated 2019).
Several values for one entry are separate records, joined by “and”; a condition that tells them apart may be missing. Identical values can stand only once. * marks the point of attachment. MCA = fluorescent 7-methoxycoumarin-3-carboxylic acid residue, COc1ccc2cc(C(=O)*)c(=O)oc2c1; Dpn = quencher lysine-dinitrophenol residue

Legend:
[1] = target: T1, MMP-2 (Homo sapiens, UniProt P08253); test: MMP-2 cleavage of FRET-based N-terminal 8 amino acid peptides; format: biochemical; settings: for amount of peptide cleaved by MMP-2: after 4 hours, n=4; for initial cleavage rate by MMP-2: calculated 60 minutes after addition of MMP-2, n=4
T1 construct: purchased R&D Systems
T1 sequence (P08253 110-660): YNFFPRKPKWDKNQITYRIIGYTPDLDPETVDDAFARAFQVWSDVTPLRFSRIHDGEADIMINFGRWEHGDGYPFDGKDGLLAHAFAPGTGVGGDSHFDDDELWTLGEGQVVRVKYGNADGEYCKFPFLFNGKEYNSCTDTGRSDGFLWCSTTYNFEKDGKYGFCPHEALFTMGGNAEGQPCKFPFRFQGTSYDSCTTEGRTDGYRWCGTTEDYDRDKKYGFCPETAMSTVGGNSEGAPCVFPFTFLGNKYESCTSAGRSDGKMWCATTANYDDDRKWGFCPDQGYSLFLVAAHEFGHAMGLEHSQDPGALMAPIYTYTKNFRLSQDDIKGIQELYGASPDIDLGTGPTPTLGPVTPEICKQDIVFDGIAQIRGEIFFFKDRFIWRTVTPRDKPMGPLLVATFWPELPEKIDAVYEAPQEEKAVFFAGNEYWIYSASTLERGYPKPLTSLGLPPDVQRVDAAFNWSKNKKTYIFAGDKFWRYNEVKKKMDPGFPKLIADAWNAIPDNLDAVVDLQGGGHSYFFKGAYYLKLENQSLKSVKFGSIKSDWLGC
Description: All peptides were synthesized with a fluorescent 7-methoxycoumarin-3-carboxylic acid (MCA) residue at the N-terminus and a quencher lysine-dinitrophenol (Dpn) residue at the C-terminus. […] Enzymatic cleavage of these peptides separated MCA from Dpn, resulting in an increased fluorescence. Peptides (10 μM) were then incubated with activated MMP-2 (Table 1), leukocyte elastase (Table 2), or cathepsin G (Table 3) (1.4 nM) in TNCB buffer (50 mM Tris, pH 7.5, with 10 mM calcium chloride, 150 mM sodium chloride, and 0.05% BRIJ 35) or phosphate-buffered saline (PBS) at 21° C. Fluorescence was measured at 340 nm excitation and 405 nm emission wavelengths at different time points with a Victor Wallace II plate reader.
Human recombinant MMP-2 (R&D Systems) was activated for 1 hour with 4-aminophenylmercuric acetate (APMA, 1 mM) at 37° C. 4 μg of Sumo-SSDF-1-RAD or Sumo-SSDF-1(S4V)-RAD was incubated for 1 hour to 48 hours at 21° C. with 50 ng of activated MMP-2 in TCNB buffer (50 mM Tris, pH 7.5, 10 mM CaCl2, 150 mM NaCl, 0.05% Brij-35). Sample loading buffer (Invitrogen) and 2-mercaptoethanol (0.5 M, final concentration) were added, and samples were boiled for 5 minutes and run on a 10% Bis-Tris gel. Proteins used for this experiment were obtained after cation-exchange chromatography, but were neither cleaved by Sumo-protease nor purified by RPC-HPLC.

[2] = tested on: Jurkat T-lymphocytic cells; test: Jurkat T-lymphocyte migration (chemotaxis) assay; format: cell-based; settings: for EC50 / Jurkat Chemotaxis EC50: Jurkat cells, 3 hours migration; for activity of C-terminal variant relative to SDF-1 and SSDF-1: Jurkat migration, CXCR4 cAMP and CXCR β-arrestin assays; for activity of C-terminal variant relative to SDF-1 and SSDF-1 / activity in Jurkat cell migration assay: result in words
Description: Jurkat cells were labeled with Calcein-AM (1 μM) for 60 minutes at 37° C., washed twice and resuspended in RPMI without phenol red to a final density of 4,000,000 cells/ml. […] Cells were allowed to migrate for 3 hours, and cells in lower wells were washed once with PBS. Fluorescence in lower wells was measured at 485 nm excitation and 535 nm emission wavelengths with a Victor Wallace II plate reader. A standard curve was constructed for each experiment to normalize fluorescence to the number of cells.

[3] = target: CXCR7 (Homo sapiens, UniProt P25106); test: CXCR7 β-arrestin recruitment assay (PathHunter); format: cell-based
Chain of CXCR7 (P25106 whole entry, the tested form may be a part): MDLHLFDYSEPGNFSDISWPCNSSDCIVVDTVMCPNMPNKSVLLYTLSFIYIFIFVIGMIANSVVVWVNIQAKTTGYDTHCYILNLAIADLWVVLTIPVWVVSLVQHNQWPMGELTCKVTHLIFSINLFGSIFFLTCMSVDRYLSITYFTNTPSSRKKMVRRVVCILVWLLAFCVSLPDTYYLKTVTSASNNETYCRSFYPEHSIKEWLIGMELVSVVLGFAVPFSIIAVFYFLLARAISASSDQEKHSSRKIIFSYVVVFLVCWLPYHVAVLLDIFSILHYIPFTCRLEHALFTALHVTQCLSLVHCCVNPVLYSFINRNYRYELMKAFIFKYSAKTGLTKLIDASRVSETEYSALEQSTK
Description: (§1) PathHunter β-arrestin assays were performed following the instructions of the manufacturer (DiscoveRx). Briefly, PathHunter cell lines stably expressing both a β-arrestin-Enzyme Acceptor of β-galactosidase fusion and one of the chemokine receptors fused with the ProLink donor peptide of […] were employed. Upon CXCR stimulation, β-arrestin is recruited to the receptor for desensitization, bringing the two fragments (the Enzyme Acceptor and the ProLink) of β-galactosidase together. This generates an active β-galactosidase enzyme that can convert a substrate to a chemiluminescent product. Cells were seeded at a density of 5000 cells/well in a 384-well plate and were allowed to adhere overnight. […] After incubation, chemiluminescent signal was generated through addition of 12.5 μl (50% v/v) of PathHunter Detection reagent cocktail (DiscoveRx) followed by a 1-hour incubation at room temperature. Microplates were read with a PerkinElmer ViewLux instrument.

[4] = target: T2, CXCR4 (Homo sapiens, UniProt P61073); test: CXCR4 cAMP receptor activation assay (CHO-K1 cells expressing CXCR4); format: cell-based; set-up: host or cells: CHO-K1; settings: decrease in cAMP by Gαi activation, forskolin at EC80
T2 sequence (P61073 whole entry): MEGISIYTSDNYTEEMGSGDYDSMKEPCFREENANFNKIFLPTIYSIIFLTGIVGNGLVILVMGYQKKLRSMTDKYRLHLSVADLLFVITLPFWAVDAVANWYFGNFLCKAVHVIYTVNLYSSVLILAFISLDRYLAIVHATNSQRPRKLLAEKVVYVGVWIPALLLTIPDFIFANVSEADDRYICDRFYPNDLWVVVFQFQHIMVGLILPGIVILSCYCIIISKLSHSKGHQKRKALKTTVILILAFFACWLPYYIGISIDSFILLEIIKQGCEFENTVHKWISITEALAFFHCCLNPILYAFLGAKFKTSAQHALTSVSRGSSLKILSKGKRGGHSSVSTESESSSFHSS
Description: For the CXCR4 cAMP assay, CHO-K1 cells stably expressing the CXCR4 receptor (DiscoveRx, Fremont, Calif.) were seeded at a density of 10,000 cells/well in a 384-well plate and were allowed to recover overnight. A decrease in cAMP by CXCR4-induced Gαi activation was determined using the DiscoveRx HitHunter cAMP XS+assay following the manufacturer's protocol. […] Chemiluminescence was read with a PerkinElmer ViewLux instrument.

[5] = tested on: ischemic hindlimb blood flow; test: Hindlimb ischemia model, laser Doppler blood flow; format: in vivo, C57BL/6 mice; settings: without nanofibers
Description: All animal protocols were approved by the institutional IACUC and performed in an AAALAC certified facility. Studies were performed blinded and randomized. Hindlimb ischemia was produced in male C57BL/6 mice (305 mice total), 8 to 12 weeks old (Jackson Laboratories and Charles River Laboratories). Mice were anesthetized with isoflurane (2-3% in 100% oxygen) and buprenorphin (0.05 mg/kg). Femoral artery was ligated and excised below the inguinal ligament and above the bifurcation of the popliteal artery. Protein and self-assembling peptide nanofibers were injected in the lower hindlimb after excision of the artery. Peptides were dissolved in isotonic sucrose (10%). Post-operative analgesia was provided with buprenorphin (0.05 mg/kg every 6 to 12 hours for 72 hours). The surgeon was blinded to the treatment groups in all studies performed. The first study included 35 animals total (5 animals per group), which received an intramuscular injection in the lower hindlimb with biotin-labeled nanofibers (biotin-RAD, 0.01% in 1% nanofibers hydrogel). Tissues were harvested at seven different time points and nanofibers were stained with Alexa fluor-labeled streptavidin. The second study included 40 animals (10 per group) with four groups: control without injection, nanofibers only, nanofibers+100 nM SSDF-1-RAD, and nanofibers+100 nM SSDF-1(S4V)-RAD. Laser Doppler blood flow measurements were performed with a Moor LDI2-IR (Moor Instruments) 2, 4, and 6 weeks after surgery. At each time point, five measurements (on average) per animal were made, and blood flow in the ischemic limb was normalized to blood flow in normal limb. The third study included 50 animals with four different dosages of SSDF-1(S4V)-RAD; all groups contained nanofibers. All laser Doppler measurements and histology quantifications were made by an operator blinded to the treatment groups.

[6] = target: T2, CXCR4; test: CXCR4 β-arrestin recruitment assay (PathHunter); format: cell-based
Description: as §1

[7] = fourth study, 1 mg/kg daily IM for first 7 days
[8] = separate confirming study, same doses and schedule

Jurkat Chemotaxis EC50 [2] | Substance | EC50 [2] | activity in Jurkat cell migration assay [2] | EC50 [3] | also measured
 | KPVSLSYR ({MCA}-KPVSLSYR-Dpn; listed as Homo sapiens) [SDF-1-N-terminal peptide, reference compound] |  |  |  | amount of peptide cleaved by MMP-2 [1]: 205 ± 18 pmol; initial cleavage rate by MMP-2 [1]: 2.0±0.1×10^−10 M s^−1
 | SDF-1(S4V)-N-terminal peptide: First 8 amino acids of SDF-1(S4V) (SEQ ID NO:91) with MCA at the N-terminus and quencher Dpn at the C-terminus ({MCA}-KPVVLSYR-Dpn) |  |  |  | amount of peptide cleaved by MMP-2 [1]: 1 ± 3 pmol; initial cleavage rate by MMP-2 [1]: 0.1±0.1×10^−10 M s^−1
 | SDF-1: Unmutated SDF-1α, 68 amino acids, SEQ ID NO:52 [reference compound] | 1.5 nM and 1.8 nM |  |  | 
 | SSDF-1 (+69S): SSDF-1 with an amino acid residue (serine) added to the C-terminal end | 12 nM |  |  | EC50 ([2]; listed as SSDF-1(+69S)): 2 nM; activity of C-terminal variant relative to SDF-1 and SSDF-1 [2]: retains significant activity
Inactive | SSDF-1 (L5D): SDF-1 with Leu→Asp at position 5 and N-terminal serine |  | inactive |  | 
Inactive | SSDF-1 (L5E): SDF-1 with Leu→Glu at position 5 and N-terminal serine |  | inactive |  | 
Inactive | SSDF-1 (L5H): SDF-1 with Leu→His at position 5 and N-terminal serine |  | inactive |  | 
Inactive | SSDF-1 (L5K): SDF-1 with Leu→Lys at position 5 and N-terminal serine |  | inactive |  | 
 | SSDF-1 (L5P): SDF-1 with Leu→Pro at position 5 (SEQ ID NO:66) and N-terminal serine | 120 nM |  | 225 nM | CXCR4 (cAMP) EC50 [4]: Inactive
 | SSDF-1 (L5T): SDF(L5T) (SEQ ID NO:56) with N-terminal serine | 20 nM |  | 8.7 nM | EC50 [4]: 3.6 nM
 | SSDF-1 (L5V): SDF(L5V) (SEQ ID NO:60) with N-terminal serine | 36 nM |  | 21 nM | EC50 [4]: 33 nM
Inactive | SSDF-1 (L5W): SDF-1 with Leu→Trp at position 5 and N-terminal serine |  | inactive |  | 
 | SSDF-1 (S4V): SDF-1(S4V) (SEQ ID NO:65) with a serine residue added at the N-terminus | 5.4 nM | highest potency | 37 nM | average blood flow (ratio of ischemic to control limb) ([5]; four weeks, 4 administrations (d0, d1, d3, d5) of 1 mg/kg): 27.1±2.5%; blood flow differences between groups [5, 7]: No significant differences in blood flow; blood flow differences between groups [5, 8]: did not show significant differences between groups; blood flow differences between groups ([5]; third study, 0.1, 0.3, 1 and 3 mg/kg at d0, d1, d3, d5): No significant differences in blood flow; EC50 [4]: 20 nM; EC50 [6]: 28 nM
 | SSDF-1 (S6C): SDF(S6C) (SEQ ID NO:61) with N-terminal serine | 23 nM |  | 29 nM | EC50 [4]: 12 nM
 | SSDF-1 (S6G): SDF(S6G) (SEQ ID NO:62) with N-terminal serine | 11 nM |  | 25 nM | EC50 [4]: 8.5 nM
 | SSDF-1 (V3C): SDF(V3C) (SEQ ID NO:55) with N-terminal serine | 15 nM |  | 14 nM | EC50 [4]: 0.6 nM
Inactive | SSDF-1 (V3D): SDF-1 with Val→Asp at position 3 and N-terminal serine |  | inactive |  | 
Inactive | SSDF-1 (V3G): SDF-1 with Val→Gly at position 3 and N-terminal serine |  | inactive |  | 
 | SSDF-1 (V3H): SDF(V3H) (SEQ ID NO:54) with N-terminal serine | 6.7 nM |  | 92 nM | EC50 [4]: 1 nM
Inactive | SSDF-1 (V3P): SDF-1 with Val→Pro at position 3 and N-terminal serine |  | inactive |  | 
 | SSDF-1 (−68K): SDF-1 lacking the C-terminal lysine, with N-terminal serine | 2.2 nM |  |  | EC50 ([2]; listed as SSDF-1(−68K)): 1.3 nM; activity of C-terminal variant relative to SDF-1 and SSDF-1 [2]: unchanged
 | SSDF-1(S4V)(−68K): SSDF-1(S4V) lacking the C-terminal lysine | 10 nM |  |  | 
 | SSDF-1(S4V)-RADI: Fusion protein of SSDF-1(S4V) and RAD16-I sequence, six glycine linker (SEQ ID NO:75) | 18 nM |  |  | 
 | SSDF-1(S4V)γ: SDF-1γ version of SSDF-1(S4V) | 47 nM |  |  | 
 | SSDF-1: SDF-1 with a serine residue added at the N-terminus | 1.6 nM |  |  | blood flow differences between groups [5, 7]: No significant differences in blood flow; blood flow differences between groups [5, 8]: did not show significant differences between groups
